# From US20140323354A1, “Chemically Modified Ligase Cofactors, Donors and Acceptors” (priority 2010, published 2014)
# Target: T1, T4 DNA ligase (Enterobacteria phage T4, UniProt P00970)
# T1 construct: purchased New England Biolabs
# Experiment: Ligation yield with modified ATP cofactors on matched and mismatched templates, PAGE analysis
# Format: biochemical, bacteriophage T4
# Conditions: for discrimination of modified cofactor between matched and mismatched templates: matched T-A versus mismatched C-A, G-A, A-A, panel of ten modified cofactors at 1 mM
# Experimental: Each 20 μL reaction was performed in buffer containing 50 mM Tris-HCl (pH 7.5), 10 mM MgCl2, 10 mM dithiothreitol, 25 μg/ml bovine serum albumin. 1 mM ATP was added to the buffer separately. The donor (LP3′T w/PBS), acceptor (Com3F w/PBS), and template (Alg) were at 0.1 μM equimolar amounts. The acceptor, donor, and template were denatured at 95° C. for 3 minutes and annealed at 4° C. for 3 minutes. Ligation was initiated by adding 400 units of T4 ligase (New England Biolabs) to each reaction. Ligation proceeded at 16° C. for 20 minutes. Ligation was terminated by heating the reaction to 65° C. for 10 minutes and adding an equal volume of 2×TBE-Urea buffer (Invitrogen). Samples were run on 6% TBE-Urea Novex gels (Invitrogen). The gels were stained with SYBR Gold nucleic acid stain (Invitrogen) according to manufacturer's protocol.
# ATP analogs were compared to the corresponding natural ATP cofactor for their ability to join matched and mismatched templates (FIG. 4). ATP analogs were evaluated for relative ligation yield in the presence of matched template (LP3′T Acceptor w/PBS and Alg template; T-A matched base pair at the 3′-end of the acceptor strand) to the relative yield when a mismatched template was used (LP3′C Acceptor w/PBS and Alg template; C-A mismatched base pair on 3′-end of the acceptor strand). Reactions were performed as described for Example 1, with a cofactor of interest included in the reaction at 1 mM concentration. Natural ATP substrate was compared to the following modified cofactors: 7-deaza-ATP (7-deaza-adenosine-5′-triphosphate), N1-methyl-ATP (N1-methyl-adenosine-5′-triphosphate), 2-amino-ATP (2-amino-adenosine-5′-triphosphate), 2′-amino-2′-deoxy-ATP (2′-amino-2′-deoxyadenosine-5′-triphosphate), 3′-amino-2′,3′-dideoxy-ATP (3′-amino-2′,3′-dideoxy-adenosine-5′-triphosphate) (FIG. 4). All modified cofactors supported ligation with similar efficiency to natural ATP when a matched template was employed.
# One method of determining the ligation yield of a ligation component of interest (e.g., modified ligase cofactors, modified donors or modified acceptors) is by assigning a specificity number. Specificity numbers can be determined for example, by dividing the ligation yield of a matched case by the ligation yield of a mismatched case where a single base pair differs relative to the matched case. […] The yields are then normalized to the template readings in the same reaction, with subsequent normalization to the ligation yield for a reaction including the natural (ATP) cofactor, where ATP has a normalized yield of 1.0. For example, in the case of 2′-deoxy-ATP (2′-deoxy-adenosine-5′-triphosphate; FIG. 4), the ligation yield in the matched case (LP3′T Acceptor w/PBS and Alg template; T-A matched base pair on 3′ end of the acceptor strand) was 1.34. In the mismatched case (LP3′C Acceptor w/PBS and Alg template; C-A mismatched base pair on 3′ end of the acceptor strand) the ligation yield was 0.18. Accordingly, the specificity number assigned to 2′-deoxy-ATP in a C-A mismatch case was 1.34÷0.18 or 7.44. A value greater than one is indicative of improved ligation specificity. A value less than one is indicative of reduced ligation specificity.
# ATP analogs were compared to the natural ATP cofactor for their ability to join matched and mismatched templates for relative ligation yield in the presence of matched template (LP3′T Acceptor w/PBS and Alg template; T-A matched base pair on 3′-end of the acceptor strand) relative to the yield of templates which contained a mismatched base pair on 3′-end of the acceptor: 1) LP3′C Acceptor w/PBS and Alg template; C-A mismatch, 2) LP3′G Acceptor w/PBS and Alg template; G-A mismatch, and 3) LP3′A Acceptor w/PBS and Alg template; A-A mismatch (FIG. 5). Reactions were performed as described for Example 1, with a cofactor of interest included in the reaction at 1 mM concentration. […]
# T1 sequence (P00970 whole entry): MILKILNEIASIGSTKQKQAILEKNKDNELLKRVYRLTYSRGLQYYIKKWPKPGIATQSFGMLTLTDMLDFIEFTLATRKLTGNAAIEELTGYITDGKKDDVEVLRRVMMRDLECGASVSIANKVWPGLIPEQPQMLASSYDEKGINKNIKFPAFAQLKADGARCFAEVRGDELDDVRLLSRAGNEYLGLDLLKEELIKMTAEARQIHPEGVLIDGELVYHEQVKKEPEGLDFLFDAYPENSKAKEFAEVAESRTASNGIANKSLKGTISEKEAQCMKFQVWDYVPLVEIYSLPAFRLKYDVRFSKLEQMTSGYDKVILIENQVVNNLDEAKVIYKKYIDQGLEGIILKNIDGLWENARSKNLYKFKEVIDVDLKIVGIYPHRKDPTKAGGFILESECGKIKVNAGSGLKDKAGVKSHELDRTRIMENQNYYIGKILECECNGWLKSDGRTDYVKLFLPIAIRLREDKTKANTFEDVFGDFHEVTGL
Structure (SMILES),discrimination of modified cofactor between matched and mismatched templates,"ligation yield in the mismatched case (LP3′C Acceptor w/PBS and Alg template, C-A mismatched base pair on 3′ end of acceptor, cofactor 1 mM, normalized to ATP = 1.0)","ligation yield in the matched case (LP3′T Acceptor w/PBS and Alg template, T-A matched base pair on 3′ end of acceptor, cofactor 1 mM, normalized to ATP = 1.0)","specificity number (matched (T-A) yield divided by mismatched (C-A) yield, greater than one = improved ligation specificity)"
Nc1ncnc2c1ncn2[C@@H]1O[C@H](COP(O)(=S)OP(=O)(O)OP(=O)(O)O)[C@@H](O)[C@H]1O (stereo partly drawn) [5′-alpha-thio-adenosine-5′-triphosphate],lead modifications of interest,,,
"Nc1ncnc2c1ncn2[C@H]1C[C@H](N)[C@@H](COP(=O)(O)OP(=O)(O)OP(=O)(O)O)O1 [3′-amino-2′,3′-dideoxy-adenosine-5′-triphosphate]",lead modifications of interest,,,
"Nc1ncnc2c1ncn2[C@H]1C[C@H](O)[C@@H](COP(=O)(O)OP(=O)(O)OP(=O)(O)O)O1 [2′-deoxy-ATP, 2′-deoxy-adenosine-5′-triphosphate]",lead modifications of interest,0.18,1.34,7.44
